Measured values from patent publication US20230024096A1, “BIFUNCTIONAL COMPOUNDS FOR THE TREATMENT OF CANCER” (Hoffmann-La Roche Inc., priority 2019, published 2023).

Biological target: T1, SMARCA2 (Homo sapiens, UniProt P51531)
T1 construct: endogenous in cells; host or cells: HT1080 (CRISPR HiBiT knock-in clone, generated in house)
Test: SMARCA2 HiBiT degradation assay (cellular)
Format: cell-based
Settings: table head names A549; for DC50: 6 h incubation, HiBiT-tagged SMARCA2, luminescence read-out, read-out: HiBit A549 SMARCA2 IP (nM) 6 h; for Emax: A549, 6 h incubation, Emax = amount of residual protein remaining in the cell following compound treatment

T1 sequence (P51531 whole entry): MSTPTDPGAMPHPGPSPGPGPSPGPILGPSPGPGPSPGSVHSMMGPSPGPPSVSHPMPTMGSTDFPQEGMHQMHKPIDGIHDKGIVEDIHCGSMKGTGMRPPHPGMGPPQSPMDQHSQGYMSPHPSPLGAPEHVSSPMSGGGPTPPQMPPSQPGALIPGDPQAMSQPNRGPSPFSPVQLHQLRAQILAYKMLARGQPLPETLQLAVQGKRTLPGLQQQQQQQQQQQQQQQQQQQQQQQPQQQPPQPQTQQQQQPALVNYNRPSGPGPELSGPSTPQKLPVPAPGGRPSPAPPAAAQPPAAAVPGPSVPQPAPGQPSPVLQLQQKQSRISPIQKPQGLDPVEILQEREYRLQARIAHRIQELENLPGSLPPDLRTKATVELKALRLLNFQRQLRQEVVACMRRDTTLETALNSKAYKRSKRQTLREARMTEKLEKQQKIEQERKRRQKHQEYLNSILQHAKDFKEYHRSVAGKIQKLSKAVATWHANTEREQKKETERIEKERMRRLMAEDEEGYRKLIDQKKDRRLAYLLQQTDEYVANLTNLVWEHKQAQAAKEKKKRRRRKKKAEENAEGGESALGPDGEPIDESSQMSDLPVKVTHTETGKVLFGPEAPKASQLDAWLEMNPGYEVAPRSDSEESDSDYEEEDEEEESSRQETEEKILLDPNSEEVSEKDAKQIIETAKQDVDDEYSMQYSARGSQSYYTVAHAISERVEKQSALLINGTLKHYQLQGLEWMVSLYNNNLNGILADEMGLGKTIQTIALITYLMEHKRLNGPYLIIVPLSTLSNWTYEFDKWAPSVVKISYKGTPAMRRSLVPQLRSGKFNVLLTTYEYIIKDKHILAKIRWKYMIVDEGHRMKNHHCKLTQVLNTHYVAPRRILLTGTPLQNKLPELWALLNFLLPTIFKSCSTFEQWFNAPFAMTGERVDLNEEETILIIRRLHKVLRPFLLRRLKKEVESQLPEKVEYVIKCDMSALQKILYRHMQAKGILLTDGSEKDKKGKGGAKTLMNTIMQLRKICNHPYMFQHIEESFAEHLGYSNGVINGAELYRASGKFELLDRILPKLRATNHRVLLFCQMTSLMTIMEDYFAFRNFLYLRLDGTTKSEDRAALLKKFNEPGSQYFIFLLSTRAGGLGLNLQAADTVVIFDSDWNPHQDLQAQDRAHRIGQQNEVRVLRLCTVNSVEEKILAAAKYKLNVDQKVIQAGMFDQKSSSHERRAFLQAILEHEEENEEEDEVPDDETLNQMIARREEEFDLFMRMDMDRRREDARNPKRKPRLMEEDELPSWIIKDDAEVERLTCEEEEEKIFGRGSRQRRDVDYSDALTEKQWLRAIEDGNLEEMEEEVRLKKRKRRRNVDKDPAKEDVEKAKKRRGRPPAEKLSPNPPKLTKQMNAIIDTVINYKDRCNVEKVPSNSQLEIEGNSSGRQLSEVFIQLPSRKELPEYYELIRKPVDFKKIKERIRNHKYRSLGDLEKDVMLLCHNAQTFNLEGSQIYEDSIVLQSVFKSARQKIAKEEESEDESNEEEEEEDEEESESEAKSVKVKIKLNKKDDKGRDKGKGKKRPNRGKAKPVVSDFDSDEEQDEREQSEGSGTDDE

SMILES: Nc1nnc(-c2ccccc2O)cc1N1CCC(CNC(=O)COc2cccc3c2C(=O)N(C2CCC(=O)NC2=O)C3=O)(c2ccccc2)CC1 (centres unmarked) [Example 72, N-[[1-[3-amino-6-(2-hydroxyphenyl)pyridazin-4-yl]-4-phenyl-4-piperidyl]methyl]-2-[2-(2,6-dioxo-3-piperidyl)-1,3-dioxo-isoindolin-4-yl]oxy-acetamide]
- DC50: 273 nM
- Emax: 62%

SMILES: Nc1nnc(-c2ccccc2O)cc1N1CC2CCC(C1)N2c1cccc(CN2CCC(C(=O)N3CCN(c4ccc(OC5CCC(=O)NC5=O)cc4)CC3)CC2)c1 (racemic) [Example 94, rac-3-[4-[4-[1-[[3-[3-[3-amino-6-(2-hydroxyphenyl)pyridazin-4-yl]-3,8-diazabicyclo[3.2.1]octan-8-yl]phenyl]methyl]piperidine-4-carbonyl]piperazin-1-yl]phenoxy]piperidine-2,6-dione]
- DC50: 18 nM
- Emax: 48%

SMILES: Nc1nnc(-c2ccccc2O)cc1N1CC2CCC(C1)N2c1cccc(OCCN2CCN(C(=O)N3CCN(c4ccc5c(c4)C(=O)N(C4CCC(=O)NC4=O)C5=O)CC3)CC2)c1 (racemic) [Example 49, rac-5-[4-[4-[2-[3-[3-[3-amino-6-(2-hydroxyphenyl)pyridazin-4-yl]-3,8-diazabicyclo[3.2.1]octan-8-yl]phenoxy]ethyl]piperazine-1-carbonyl]piperazin-1-yl]-2-(2,6-dioxo-3-piperidyl)isoindoline-1,3-dione]
- DC50: 4 nM
- Emax: 39%

SMILES: Nc1nnc(-c2ccccc2O)cc1N1CCC(C(=O)N2CC3(CCN(C(=O)CCC4CCN(c5ccc6c(c5)C(=O)N(C5CCC(=O)NC5=O)C6=O)CC4)C3)C2)(c2ccccc2)CC1 (centres unmarked) [Example 188, 5-(4-(3-(2-(1-(3-amino-6-(2-hydroxyphenyl)pyridazin-4-yl)-4-phenylpiperidine-4-carbonyl)-2,6-diazaspiro[3.4]octan-6-yl)-3-oxopropyl)piperidin-1-yl)-2-(2,6-dioxopiperidin-3-yl)isoindoline-1,3-dione]
- DC50: 193 nM
- Emax: 50%

SMILES: Nc1nnc(-c2ccccc2O)cc1N1CC2CCC(C1)N2c1cccc(OC2CCN(C(=O)C3CCN(c4ccc5c(c4)C(=O)N(C4CCC(=O)NC4=O)C5=O)CC3)CC2)c1 (racemic) [Example 113, rac-5-[4-[4-[3-[3-[3-amino-6-(2-hydroxyphenyl)pyridazin-4-yl]-3,8-diazabicyclo[3.2.1]octan-8-yl]phenoxy]piperidine-1-carbonyl]-1-piperidyl]-2-(2,6-dioxo-3-piperidyl)isoindoline-1,3-dione]
- DC50: 19 nM
- Emax: 35%

SMILES: Nc1nnc(-c2ccccc2O)cc1OC1CCCN(c2ccc(N3CCN(CCCCC(=O)N4CCC(n5cc(COc6cccc7c6C(=O)N(C6CCC(=O)NC6=O)C7=O)nn5)CC4)CC3)cc2)C1 (racemic) [Example 138, 2-(2,6-dioxo-3-piperidyl)-4-[[1-[1-[5-[4-[4-[rac-(3S)-3-[3-amino-6-(2-hydroxyphenyl)pyridazin-4-yl]oxy-1-piperidyl]phenyl]piperazin-1-yl]pentanoyl]-4-piperidyl]triazol-4-yl]methoxy]isoindoline-1,3-dione]
- DC50: 678 nM
- Emax: 42%

SMILES: Nc1nnc(-c2ccccc2O)cc1OC1CCCN(c2ccc(N3CCN(C(=O)CCCCCCCCn4cc(CNc5cccc6c5C(=O)N(C5CCC(=O)NC5=O)C6=O)nn4)CC3)cc2)C1 (centres unmarked) [Example 3, 4-[[1-[9-[4-[4-[3-[3-amino-6-(2-hydroxyphenyl)pyridazin-4-yl]oxy-1-piperidyl]phenyl]piperazin-1-yl]-9-oxo-nonyl]triazol-4-yl]methylamino]-2-(2,6-dioxo-3-piperidyl)isoindoline-1,3-dione]
- DC50: 65 nM
- Emax: 50%

SMILES: Nc1nnc(-c2ccccc2O)cc1N1CCC(C(=O)N2CC3(CCN(C(=O)CC4CCN(c5ccc6c(c5)C(=O)N(C5CCC(=O)NC5=O)C6=O)CC4)C3)C2)(c2ccccc2)CC1 (centres unmarked) [Example 187, 5-(4-(2-(2-(1-(3-amino-6-(2-hydroxyphenyl)pyridazin-4-yl)-4-phenylpiperidine-4-carbonyl)-2,6-diazaspiro[3.4]octan-6-yl)-2-oxoethyl)piperidin-1-yl)-2-(2,6-dioxopiperidin-3-yl)isoindoline-1,3-dione]
- DC50: 579 nM
- Emax: 53%

SMILES: Nc1nnc(-c2ccccc2O)cc1N1CC(Oc2cccc(C(=O)N3CCN(C(=O)CCCCCCCCCNc4cccc5c4C(=O)N(C4CCC(=O)NC4=O)C5=O)CC3)c2)C1 (centres unmarked) [Example 146, 4-[[10-[4-[3-[1-[3-amino-6-(2-hydroxyphenyl)pyridazin-4-yl]azetidin-3-yl]oxybenzoyl]piperazin-1-yl]-10-oxo-decyl]amino]-2-(2,6-dioxo-3-piperidyl)isoindoline-1,3-dione]
- DC50: 126 nM
- Emax: 41%

SMILES: Nc1nnc(-c2ccccc2O)cc1N1CCN(c2cccc(OCCN3CCN(C(=O)C4CCN(c5ccc6c(c5)C(=O)N(C5CCC(=O)NC5=O)C6=O)CC4)CC3)c2)C2(CCC2)C1 (centres unmarked) [Example 197, 5-[4-[4-[2-[3-[8-[3-amino-6-(2-hydroxyphenyl)pyridazin-4-yl]-5,8-diazaspiro[3.5]nonan-5-yl]phenoxy]ethyl]piperazine-1-carbonyl]-1-piperidyl]-2-(2,6-dioxo-3-piperidyl)isoindoline-1,3-dione]
- DC50: 46 nM
- Emax: 30%

SMILES: Nc1nnc(-c2ccccc2O)cc1N1CC2CCC(C1)N2c1cccc(CN2CCN(C(=O)CN3CCC(c4ccc(OC5CCC(=O)NC5=O)cc4)CC3)CC2)c1 (racemic) [Example 148, rac-3-[4-[1-[2-[4-[[3-[3-[3-Amino-6-(2-hydroxyphenyl)pyridazin-4-yl]-3,8-diazabicyclo[3.2.1]octan-8-yl]phenyl]methyl]piperazin-1-yl]-2-oxo-ethyl]-4-piperidyl]phenoxy]piperidine-2,6-dione]
- DC50: 25 nM
- Emax: 33%

SMILES: Nc1nnc(-c2ccccc2O)cc1OC1CCCN(c2ccc(N3CCN(C(=O)CCCCCCCCN4CCC(Oc5ccc6c(c5)C(=O)N(C5CCC(=O)NC5=O)C6=O)CC4)CC3)cc2)C1 (centres unmarked) [Example 44, 5-[[1-[9-[4-[4-[3-[3-amino-6-(2-hydroxyphenyl)pyridazin-4-yl]oxy-1-piperidyl]phenyl]piperazin-1-yl]-9-oxo-nonyl]-4-piperidyl]oxy]-2-(2,6-dioxo-3-piperidyl)isoindoline-1,3-dione]
- DC50: 133 nM
- Emax: 61%

SMILES: Nc1nnc(-c2ccccc2O)cc1N1CCN(c2ccccc2)C(C(=O)NCC2CCN(C(=O)C3CCN(c4ccc5c(c4)C(=O)N(C4CCC(=O)NC4=O)C5=O)CC3)CC2)C1 (centres unmarked) [Example 82, 4-(3-amino-6-(2-hydroxyphenyl)pyridazin-4-yl)-N-((1-(1-(2-(2,6-dioxopiperidin-3-yl)-1,3-dioxoisoindolin-5-yl)piperidine-4-carbonyl)piperidin-4-yl)methyl)-1-phenylpiperazine-2-carboxamide]
- DC50: 190 nM
- Emax: 65%

SMILES: Nc1nnc(-c2ccccc2O)cc1N1CC2CCC(C1)N2c1cccc(OCCN2CCN(C(=O)C3CN(c4ccc5c(c4)C(=O)N(C4CCC(=O)NC4=O)C5=O)C3)CC2)c1 (racemic) [Example 60, rac-5-[3-[4-[2-[3-[3-[3-amino-6-(2-hydroxyphenyl)pyridazin-4-yl]-3,8-diazabicyclo[3.2.1]octan-8-yl]phenoxy]ethyl]piperazine-1-carbonyl]azetidin-1-yl]-2-(2,6-dioxo-3-piperidyl)isoindoline-1,3-dione]
- DC50: 18 nM
- Emax: 32%

SMILES: CC(Oc1cccc2c1C(=O)N(C1CCC(=O)NC1=O)C2=O)c1cn(CCCN2CCN(C(=O)CCN3CCN(c4ccc(N5CCC[C@H](Oc6cc(-c7ccccc7O)nnc6N)C5)cc4)CC3)CC2)nn1 (mixture of isomers) [Example 200, 2-(2,6-dioxo-3-piperidyl)-4-[1-[1-[3-[4-[3-[4-[4-[rac-(3S)-3-[3-amino-6-(2-hydroxyphenyl)pyridazin-4-yl]oxy-1-piperidyl]phenyl]piperazin-1-yl]propanoyl]piperazin-1-yl]propyl]triazol-4-yl]ethoxy]isoindoline-1,3-dione]
- DC50: 104 nM
- Emax: 45%

SMILES: Nc1nnc(-c2ccccc2O)cc1N1CCN(c2ccccc2)C(C(=O)NC2CCN(C(=O)CCC3CCN(c4ccc5c(c4)C(=O)N(C4CCC(=O)NC4=O)C5=O)CC3)CC2)C1 (centres unmarked) [Example 54, 4-[3-amino-6-(2-hydroxyphenyl)pyridazin-4-yl]-N-[1-[3-[1-[2-(2,6-dioxo-3-piperidyl)-1,3-dioxo-isoindolin-5-yl]-4-piperidyl]propanoyl]-4-piperidyl]-1-phenyl-piperazine-2-carboxamide]
- DC50: 42 nM
- Emax: 63%

SMILES: Nc1nnc(-c2ccccc2O)cc1OC1CCCN(c2ccc(N3CCN(CCCCCCCCCn4cc(CCNc5cccc6c5C(=O)N(C5CCC(=O)NC5=O)C6=O)nn4)CC3)cc2)C1 (centres unmarked) [Example 110, 4-[2-[1-[9-[4-[4-[3-[3-amino-6-(2-hydroxyphenyl)pyridazin-4-yl]oxy-1-piperidyl]phenyl]piperazin-1-yl]nonyl]triazol-4-yl]ethylamino]-2-(2,6-dioxo-3-piperidyl)isoindoline-1,3-dione]
- DC50: 276 nM
- Emax: 52%

SMILES: Nc1nnc(-c2ccccc2O)cc1N1CC2CCC(C1)N2c1cccc(OCCN2CCN(C(=O)CCCCCCNc3cccc4c3C(=O)N(C3CCC(=O)NC3=O)C4=O)CC2)c1 (centres unmarked) [Example 1, 4-[[7-[4-[2-[3-[3-[3-amino-6-(2-hydroxyphenyl)pyridazin-4-yl]-3,8-diazabicyclo[3.2.1]octan-8-yl]phenoxy]ethyl]piperazin-1-yl]-7-oxo-heptyl]amino]-2-(2,6-dioxo-3-piperidyl)isoindoline-1,3-dione]
- DC50: 68 nM
- Emax: 55%

SMILES: Nc1nnc(-c2ccccc2O)cc1N1CCC(C(=O)N2CCC(C(=O)N3CCN(Cc4ccc5c(c4)C(=O)N(C4CCC(=O)NC4=O)C5=O)CC3)CC2)(c2ccccc2)CC1 (centres unmarked) [Example 174, 5-((4-(1-(1-(3-amino-6-(2-hydroxyphenyl)pyridazin-4-yl)-4-phenylpiperidine-4-carbonyl)piperidine-4-carbonyl)piperazin-1-yl)methyl)-2-(2,6-dioxopiperidin-3-yl)isoindoline-1,3-dione]
- DC50: 123 nM
- Emax: 54%
